Assay results as given in patent publication US20090068161A1, “USE OF A COMBINATION OF HESPERIDIN AND OF A MICROORGANISM FOR INFLUENCING THE BARRIER FUNCTION OF THE SKIN” (L'OREAL, priority 2007, published 2009).

Test system: Episkin® model (reconstituted skin)
Test: Barrier function of reconstituted skin (Episkin® model): penetration of a nonpenetrating reference compound (cationic anthraquinone)
Type: cell-based
Details: condition E: Episkin® treated from D6 to D13 with 10 μM Hes7Glu; dye 1 mM applied for 4 hours
Source text: The conversion of a nutritional agent (hereinafter known as probiotic conditioned medium) after ingestion is first of all stimulated, for the purpose of resulting use directly on a skin model (stage A).
The medium of the cocultures stimulated with Lactobacillus paracasei, resulting from the basolateral compartment, is subsequently withdrawn and its effects, in combination with the most important metabolite of hesperidin, hesperitin-7 glucuronide (Hes7Glu), on the barrier function in the Episkin® model are subsequently tested in vitro (stage B).
A—Preparation of the Probiotic Conditioned Medium
An intestinal barrier model (comprising human enterocyte lines (Caco-2) co-cultured with human leukocytes in a “transwell” cell co-culture system [Haller D, 2000]) has been developed. […]
The receiving liquid (RL) is collected and then assayed directly at the end of application by HPLC. Each point is analysed in duplicate. […]
The concentration is determined using a calibration range produced on the same day. The degrees of penetration are calculated from the ratio of the amount in the RL to the amount applied, the following results having in addition formed the subject of a statistical study using the Wilcoxon tests.

COc1ccc([C@@H]2CC(=O)c3c(O)cc(O[C@@H]4O[C@H](C(=O)O)[C@@H](O)[C@H](O)[C@H]4O)cc3O2)cc1O [Hes7Glu, hesperitin-7 glucuronide]
effect on the barrier function (degree of penetration of the cationic anthraquinone): no significant effect
